Two compounds from PMC4747340, “A new class of small molecule estrogen receptor-alpha antagonists that overcome anti-estrogen resistance” (Oncotarget, 2015) can be followed below.

A value given as a limit tells only on which side of the number the result lay.

Format in all cases: cell-based
The target of one experiment is T1, BRCA1: ER complex (Homo sapiens, UniProt P03372).
T1 construct: endogenous in cells; host or cells: MCF-7
Put plainly: immunoprecipitation-Western blotting of BRCA1:ER complex in MCF-7 cells. The procedure: Figure 7 Compound 4631-P/1 disrupts the BRCA1/ER interaction in MCF-7 cells A., B. MCF-7 cells were incubated with the indicated with compound 4631-P/1 (1 or 20 μM) or vehicle only (DMSO) plus E2 (10 nM) for 24 hr; and the cells were harvested for immunoprecipitation of ER (A) or BRCA1 (B), followed by Western blotting for ER and BRCA1. As a negative control, cells treated with vehicle (DMSO) only were subjected to an IP with normal IgG. C. Unprecipitated lysates from cells treated as in panel A were subjected to Western blotting to detect BRCA1, ER, or actin (loading control). The data shown in each panel are representative of three independent experiments.
After the indicated treatments, cells were harvested, and whole cell extracts were prepared in IP buffer [10 mM Tris-HCl (pH 7.4), 150 mM NaCl, 1 mM EDTA, 1 mM EGTA, 1% Triton X-100, 0.5% IGEPAL CA-630 (Sigma), 10% glycerol, 1 mM sodium orthovanadate, and protease inhibitor cocktail (Santa Cruz)] [11, 18]. Each IP was carried out using 2-μg antibody and 500-μg extract protein. […] For each experiment, a control IP using an equal quantity of normal mouse or rabbit IgG (Santa Cruz) was carried out. […]
On the technique in general: A western blot detects proteins with antibodies after separation by electrophoresis.

The target of the next experiment is T2, ER Ile326Ala (Homo sapiens, UniProt P03372, I326A).
T2 construct: expressed in transfected cells; host or cells: MDA-MB-231
Nature of the experiment: ER mutation analysis, ERE-TK-Luc reporter in transfected MDA-MB-231 cells. To be noted: MDA-MB-231 transfected with mutant ER, E2 10 nM, 24 hr. The text has this: (§1) B., C. Panels B and C show a comparison of the ER interaction of one of our original series of compounds (A7) (B) and one new compounds (48693-K/1) (C). ER is represented by gray ribbon and its residues interacting with the compounds are drawn with wireframe and labeled. […] The hydrogen bond interaction with ARG 394 is shown in green line. […] The cells were harvested for luciferase assays. Luciferase values are expressed as a percent of the +E2 vehicle control and are means ± SEMs of four wells. The data shown in panels D to G are representative of three independent experiments.
(§2) Subconfluent cells in 24-well dishes were transfected overnight with 0.25 μg of each indicated vector plus the ERE-TK-Luc reporter in serum-free DMEM containing Lipofectamine2000 (Life Technologies, Washington, DC). Total transfected DNA was kept constant by addition of control vector. The cells were washed, incubated in phenol red-free DMEM containing 5% charcoal-stripped serum (obtained from the Tissue Culture Shared Resource) (0.2 ml/well) ± E2 (10 nM) ± the indicated compound for 24-hr, and harvested for luciferase assays. For each assay condition was tested in quadrupicate. To monitor the transfection efficiency, cultures were co-transfected with plasmid pRSV-β-gal (Promega, Madison, WI) to visualize transfected cells by X-gal staining.

For another experiment, the target named is T3, ER Pro325Ala (Homo sapiens, UniProt P03372, P325A).
T3 construct: expressed in transfected cells; host or cells: MDA-MB-231
The description is as above. The settings on record: MDA-MB-231 transfected with mutant ER, E2 10 nM, 24 hr.
Description: as §1, §2

The target in another experiment is T4, Wild-type ER (Homo sapiens, UniProt P03372).
T4 construct: expressed in transfected cells; host or cells: MDA-MB-231
Described as above. The settings on record: MDA-MB-231 transfected with wtER, E2 10 nM, 24 hr.
Description: as §1, §2

For a further experiment, the target named is T5, ER Trp393Ala (Homo sapiens, UniProt P03372, W393A).
T5 construct: expressed in transfected cells; host or cells: MDA-MB-231
The description is as above. The settings on record: MDA-MB-231 transfected with mutant ER, E2 10 nM, 24 hr.
Description: as §1, §2

A further experiment deals with T6, ER Lys449Ala (Homo sapiens, UniProt P03372, K449A).
T6 construct: expressed in transfected cells; host or cells: MDA-MB-231
The experiment is described as above. The settings on record: MDA-MB-231 transfected with mutant ER, E2 10 nM, 24 hr.
Description: as §1, §2

The next experiment deals with T7, ER Glu353Ala (Homo sapiens, UniProt P03372, E353A).
T7 construct: expressed in transfected cells; host or cells: MDA-MB-231
Described as above. To be noted: MDA-MB-231 transfected with mutant ER, E2 10 nM, 24 hr.
Description: as §1, §2

Another experiment addresses T8, ER Arg394Ala (Homo sapiens, UniProt P03372, R394A).
T8 construct: expressed in transfected cells; host or cells: MDA-MB-231
The description is as above. To be noted: MDA-MB-231 transfected with mutant ER, E2 10 nM, 24 hr.
Description: as §1, §2

The next experiment has as its target T9, ER Leu327Ala (Homo sapiens, UniProt P03372, L327A).
T9 construct: expressed in transfected cells; host or cells: MDA-MB-231
Described as above. The settings on record: MDA-MB-231 transfected with mutant ER, E2 10 nM, 24 hr.
Description: as §1, §2

The next experiment has as its target T10, ER Glu323Ala (Homo sapiens, UniProt P03372, E323A).
T10 construct: expressed in transfected cells; host or cells: MDA-MB-231
The experiment is described as above. The settings on record: MDA-MB-231 transfected with mutant ER, E2 10 nM, 24 hr.
Description: as §1, §2

The target in the next experiment is T11, ER His356Ala (Homo sapiens, UniProt P03372, H356A).
T11 construct: expressed in transfected cells; host or cells: MDA-MB-231
The description is as above. The settings on record: MDA-MB-231 transfected with mutant ER, E2 10 nM, 24 hr.
Description: as §1, §2

The target in another experiment is T12, ER-α (Homo sapiens, UniProt P03372).
T12 construct: expressed in transfected cells; host or cells: DU-145
Put plainly: E2-stimulated ER-α activity, ERE-TK-Luc reporter in transfected DU-145 cells. The settings on record: DU-145 transfected with ER-α, E2 10 nM, compound 20 μM, 24 hr. The procedure: Figure 12 Compound 35446 inhibits the activity of ER-β Subconfluent proliferating DU-145 cells in 24-well dishes were transfected overnight with the ER=α or ER=β expression vector plus the ERE-TK-Luc reporter plasmid (0.25 μg per plasmid/well), washed, and allowed to recover for several hours in fresh culture medium. The cells were then post-incubated for 24 hr to allow gene expression, after which they were treated ± E2 (10 nM) and ± compound 35446 (20 μM) (or compound B2 as a negative control) for 24 hr and assayed for luciferase activity. Luciferase activity is expressed relative to the no E2 control. Values are means ± SEMs of four replicate wells. The data shown in each panel are representative of three independent experiments.
Subconfluent cells in 24-well dishes were transfected overnight with 0.25 μg of each indicated vector plus the ERE-TK-Luc reporter in serum-free DMEM containing Lipofectamine2000 (Life Technologies, Washington, DC). Total transfected DNA was kept constant by addition of control vector. The cells were washed, incubated in phenol red-free DMEM containing 5% charcoal-stripped serum (obtained from the Tissue Culture Shared Resource) (0.2 ml/well) ± E2 (10 nM) ± the indicated compound for 24-hr, and harvested for luciferase assays. For each assay condition was tested in quadrupicate. […]

T1 sequence (P03372 whole entry, one chain of several): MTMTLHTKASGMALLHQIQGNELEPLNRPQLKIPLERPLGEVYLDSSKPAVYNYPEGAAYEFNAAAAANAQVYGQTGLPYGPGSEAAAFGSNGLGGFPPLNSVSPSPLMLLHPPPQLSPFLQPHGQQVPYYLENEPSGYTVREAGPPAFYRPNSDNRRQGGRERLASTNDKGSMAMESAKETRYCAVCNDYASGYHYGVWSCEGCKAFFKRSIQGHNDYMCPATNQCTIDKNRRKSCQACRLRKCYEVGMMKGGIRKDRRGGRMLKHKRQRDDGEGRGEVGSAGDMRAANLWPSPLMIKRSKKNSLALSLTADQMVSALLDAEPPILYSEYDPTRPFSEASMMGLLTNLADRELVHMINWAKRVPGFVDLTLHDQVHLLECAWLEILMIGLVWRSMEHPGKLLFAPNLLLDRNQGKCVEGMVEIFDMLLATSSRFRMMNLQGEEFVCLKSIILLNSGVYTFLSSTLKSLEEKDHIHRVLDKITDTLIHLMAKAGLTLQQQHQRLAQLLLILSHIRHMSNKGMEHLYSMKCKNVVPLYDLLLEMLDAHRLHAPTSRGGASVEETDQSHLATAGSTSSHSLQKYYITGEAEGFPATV
T10 sequence (P03372 whole entry E323A): as the sequence (P03372 whole entry, one chain of several) above, with E323A counted along it
T9 sequence (P03372 whole entry L327A): as the sequence (P03372 whole entry, one chain of several) above, with L327A counted along it
T5 sequence (P03372 whole entry W393A): as the sequence (P03372 whole entry, one chain of several) above, with W393A counted along it
T11 sequence (P03372 whole entry H356A): as the sequence (P03372 whole entry, one chain of several) above, with H356A counted along it
T12 sequence (P03372 whole entry): as the sequence (P03372 whole entry, one chain of several) above
T4 sequence (P03372 whole entry): as the sequence (P03372 whole entry, one chain of several) above
T7 sequence (P03372 whole entry E353A): as the sequence (P03372 whole entry, one chain of several) above, with E353A counted along it
T3 sequence (P03372 whole entry P325A): as the sequence (P03372 whole entry, one chain of several) above, with P325A counted along it
T8 sequence (P03372 whole entry R394A): as the sequence (P03372 whole entry, one chain of several) above, with R394A counted along it
T6 sequence (P03372 whole entry K449A): as the sequence (P03372 whole entry, one chain of several) above, with K449A counted along it
T2 sequence (P03372 whole entry I326A): as the sequence (P03372 whole entry, one chain of several) above, with I326A counted along it

In the case of `O=C(c1cc(Br)ccc1O)c1cc(Br)ccc1O` [4631-P/1], the “dissociation of the BRCA1: ER complex” value on BRCA1: ER complex (MCF-7, E2 10 nM, compound 0, 1, 20 μM, 24 hr, IP-Western) is “concentration-dependent dissociation of ER and BRCA1”. Moreover, the “effect on total levels of ER or BRCA1” value on BRCA1: ER complex (MCF-7, Western blotting of non-precipitated lysates) is on record as “no effect”.
Broadly, the IC50 is the concentration needed to halve the response being measured. A high value points to lower potency. By inhibition is commonly meant how much of the control response was suppressed. Read a low inhibition as little suppression. For the compound `O=C(CC(c1ccccc1)N1CCCCC1)c1ccccc1` (stereo not shown) [35446-L/1, 1,3-diphenyl-3-(piperidin-1-yl)propan-1-one], the concentration for half-maximal inhibition (IC50) at ER Ile326Ala was 4 µM; against ER Pro325Ala, 0.9 µM; against Wild-type ER, 0.8 µM; on ER Trp393Ala it was over 15 µM; at ER Lys449Ala it was over 15 µM; on ER Glu353Ala, over 10 µM. Further, the half-inhibitory concentration (IC50) at ER Arg394Ala was over 15 µM; on ER Leu327Ala, 0.9 µM; at ER Glu323Ala it was 0.9 µM; on ER His356Ala it was 0.8 µM. On ER-α, this compound gave an inhibition at 20 µM of over 90%.
